The results in this text go back to US20120121540A1 (priority 2007, published 2012).

One may read the inhibition as the change of the read-out against control, counted positive when it falls. Read a high inhibition as a strong effect.

This assay in a line: HCV replicon assay (luciferase reporter, ET cell line). It counts as cell-based. Particulars: Hepatitis C virus, HCV replicon luciferase activity in ET cells. The method, boiled down:
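ET cells carry a stable luciferase-ubiquitin-neo/NS3-5B subgenomic HCV replicon with adaptive mutations. Compounds (0.1 nM to […], 0.5% DMSO) were added 24 h after plating, and luciferase was read 48-72 h later. EC50 came from 10-point 2-fold dilutions fitted to a Hill equation; TC50 was measured in parallel by WST-1.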
On the technique in general: Replicon systems follow genome replication, usually without infectious particles.

As for `COc1cccc(OC)c1C1=CCN(C(=O)c2nc3c(C(F)(F)F)cc(-c4ccoc4)cn3c2Cl)CC1` [Compound 562, (3-Chloro-6-furan-3-yl-8-trifluoromethyl-imidazo[1,2-a]pyridin-2-yl)-[4-(2,6-dimethoxy-phenyl)-3,6-dihydro-2H-pyridin-1-yl)-methanone], 10 µM produced 13.4% inhibition.
In turn, `N#Cc1ccccc1C1=CCN(C(=O)c2nc3c(C(F)(F)F)cc(-c4ccoc4)cn3c2Cl)CC1` [Compound 563, 2-[1-(3-Chloro-6-furan-3-yl-8-trifluoromethyl-imidazo[1,2-a]pyridine-2-carbonyl)-1,2,3,6-tetrahydro-pyridin-4-yl]-benzonitrile] displayed an inhibition at 10 µM of 97.4%.
To `O=C(c1nc2c(C(F)(F)F)cc(-c3ccoc3)cn2c1Cl)N1CC=C(c2c(F)cccc2F)CC1` [Compound 564, (3-Chloro-6-furan-3-yl-8-trifluoromethyl-imidazo[1,2-a]pyridin-2-yl)-[4-(2,6-difluoro-phenyl)-3,6-dihydro-2H-pyridin-1-yl)-methanone] belongs 99%; to `N#Cc1cccc(F)c1C1=CCN(C(=O)c2nc3c(C(F)(F)F)cc(-c4ccoc4)cn3c2Cl)CC1` [Compound 565, 2-[1-(3-Chloro-6-furan-3-yl-8-trifluoromethyl-imidazo[1,2-a]pyridine-2-carbonyl)-1,2,3,6-tetrahydro-pyridin-4-yl]-3-fluoro-benzonitrile], 98%.
The figure for `O=C(c1nc2c(C(F)(F)F)cc(-c3ccoc3)cn2c1Cl)N1CC=C(c2cscn2)CC1` [Compound 566] is 99.4%; for `C#Cc1ccccc1C1=CCN(C(=O)c2nc3c(C(F)(F)F)cc(-c4ccoc4)cn3c2Cl)CC1` [Compound 567, (3-Chloro-6-furan-3-yl-8-trifluoromethyl-imidazo[1,2-a]pyridin-2-yl)-[4-(2-ethynyl-phenyl)-3,6-dihydro-2H-pyridin-1-yl)-methanone] it is 81.3%.
The figure for `O=C(c1nc2c(C(F)(F)F)cc(-c3ccoc3)cn2c1Cl)N1CC=C(c2cncs2)CC1` [Compound 568] is 98.8%; for `N#Cc1ccc(F)cc1C1=CCN(C(=O)c2nc3c(C(F)(F)F)cc(-c4ccoc4)cn3c2Cl)CC1` [Compound 569, 2-[1-(3-Chloro-6-furan-3-yl-8-trifluoromethyl-imidazo[1,2-a]pyridine-2-carbonyl)-1,2,3,6-tetrahydro-pyridin-4-yl]-4-fluoro-benzonitrile] it is 85.3%; for `N#Cc1cc(F)ccc1C1=CCN(C(=O)c2nc3c(C(F)(F)F)cc(-c4ccoc4)cn3c2Cl)CC1` [Compound 570, 2-[1-(3-Chloro-6-furan-3-yl-8-trifluoromethyl-imidazo[1,2-a]pyridine-2-carbonyl)-1,2,3,6-tetrahydro-pyridin-4-yl]-5-fluoro-benzonitrile] it is 89.1%.
In turn, `O=C(c1nc2c(C(F)(F)F)cc(-c3ccoc3)cn2c1Cl)N1CC=C(c2ncccc2F)CC1` [Compound 571, (3-Chloro-6-furan-3-yl-8-trifluoromethyl-imidazo[1,2-a]pyridin-2-yl)-(3-fluoro-3′,6′-dihydro-2′H-[2,4′]bipyridinyl-1′-yl)-methanone] came in with an inhibition at 10 µM of 97.8%.
Compound `O=C(c1nc2c(C(F)(F)F)cc(-c3ccoc3)cn2c1Cl)N1CC=C(c2ccncc2F)CC1` [Compound 572, (3-Chloro-6-furan-3-yl-8-trifluoromethyl-imidazo[1,2-1]pyridine-2-yl)-(3′-fluoro-3,6-dihydro-2H-[4,4′]bipyridinyl-1-yl)-methanone] returned an inhibition at 10 µM of 98.2%.
In the case of `O=C(c1nc2c(C(F)(F)F)cc(-c3ccoc3)cn2c1Cl)N1CC=C(c2ncc(CO)s2)CC1` [Compound 573, (3-Chloro-6-furan-3-yl-8-trifluoromethyl-imidazo[1,2-a]pyridine-2-yl)-[4-(5-hydroxymethyl-thiazol-2-yl)-3,6-dihydro-2H-pyridin-1-yl]-methanone], the inhibition at 10 µM stood at 91.2%.
Consider `O=C(c1nc2c(C(F)(F)F)cc(-c3ccoc3)cn2c1Cl)N1CC=C(OS(=O)(=O)C(F)(F)F)CC1` [Compound 574, Trifluoro-methanesulfonic Acid 1-(3-chloro-6-furan-3-yl-8-trifluoromethyl-imidazo[1,2-a]pyridine-2-carbonyl)-1,2,3,6-tetrahydro-pyridin-4-yl Ester], for which the inhibition at 10 µM turned out to be 79.1%.
In turn, `O=C(c1nc2c(C(F)(F)F)cc(-c3ccoc3)cn2c1Cl)N1CC=C(c2ccoc2)CC1` [Compound 575, (3-Chloro-6-furan-3-yl-8-trifluoromethyl-imidazo[1,2-a]pyridine-2-yl)-(4-furan-3-yl-3,6-dihydro-2H-pyridin-1-yl)-methanone] had an inhibition at 10 µM of 94.3%.
The figure for `O=C(c1nc2c(C(F)(F)F)cc(-c3ccoc3)cn2c1Cl)N1CC=C(c2cccc(F)c2)CC1` [Compound 576, (3-Chloro-6-furan-3-yl-8-trifluoromethyl-imidazo[1,2-a]pyridin-2-yl)-[4-(3-fluoro-phenyl)-3,6-dihydro-2H-pyridin-1-yl)-methanone] is 82.6%.
`CN(C)S(=O)(=O)c1ccccc1C1=CCN(C(=O)c2nc3c(C(F)(F)F)cc(-c4ccoc4)cn3c2Cl)CC1` [Compound 577, 2-[1-(3-Chloro-6-furan-3-yl-8-trifluoromethyl-imidazo[1,2-a]pyridin-2-carbonyl)-1,2,3,6-tetrahydro-pyridin-4-yl)-N,N-dimethyl-benzenesulfonamide] had an inhibition at 10 µM of 71.2%.
Consider `Cn1cc(C2=CCN(C(=O)c3nc4c(C(F)(F)F)cc(-c5ccoc5)cn4c3Cl)CC2)cn1` [Compound 578, (3-Chloro-6-furan-3-yl-8-trifluoromethyl-imidazo[1,2-a]pyridin-2-yl)-[4-(1-methyl-1H-pyrazol-4-yl)-3,6-dihydro-2H-pyridin-1-yl)-methanone], for which the inhibition at 10 µM worked out at 97.2%.
The figure for `O=C(c1nc2c(C(F)(F)F)cc(-c3ccoc3)cn2c1Cl)N1CC=C(c2cn[nH]c2)CC1` [Compound 579, (3-Chloro-6-furan-3-yl-8-trifluoromethyl-imidazo[1,2-a]pyridin-2-yl)-[4-(1-1H-pyrazol-4-yl)-3,6-dihydro-2H-pyridin-1-yl)-methanone] is 97.6%; for `O=C(c1nc2c(C(F)(F)F)cc(-c3ccoc3)cn2c1Cl)N1CC=C(c2cccnc2F)CC1` [Compound 581, (3-Chloro-6-furan-3-yl-8-trifluoromethyl-imidazo[1,2-a]pyridin-2-yl)-(2-fluoro-3′,6′-dihydro-2′H-[3,4′]bipyridinyl-1′-yl)-methanone] it is 98.2%.
`O=C(c1nc2c(C(F)(F)F)cc(-c3ccoc3)cn2c1Cl)N1CC=C(c2cnoc2)CC1` [Compound 582, (3-Chloro-6-furan-3-yl-8-trifluoromethyl-imidazo[1,2-a]pyridin-2-yl)-(4-isoxazol-4-yl-3,6-dihydro-2H-pyridin-1-yl)-methanone]: at 10 µM the inhibition was 91.2%.
The figure for `O=C(c1nc2c(C(F)(F)F)cc(-c3ccoc3)cn2c1Cl)N1CC=C(c2cc[nH]c2)CC1` [Compound 583, (3-Chloro-6-furan-3-yl-8-trifluoromethyl-imid azo[1,2-a]pyridin-2-yl)-[4-(1H-pyrrol-3-yl)-3,6-dihydro-2H-pyridin-1-yl]-methanone] is 67.9%.
